# Tests used:
# Cryptococcus neoformans = assay: Multi-organ hNVU chip fungal neuroaffinity with inositol supplementation; assay type: cell-based; conditions: 200 mg/ml inositol added only to liver unit, 1 day after inoculation
# Experimental: NSC, PC and EC were seeded in the same manner as described above for fabrication of the hNVU chip system, and 8×10^6 Huh-7 cells/ml encapsulated in a BMEM hydrogel were seeded in a central channel of a liver unit of the multi-organ hNVU chip. CFW-labeled fungal cells were injected through an upper reservoir of the liver unit so that the fungi were not affected by factors secreted from a brain unit. Simultaneously with fungal inoculation, inositol (200 mg/ml, Duchefa, RV Haarlem, Netherlands) was added only to a lower channel of the liver unit.
# [1] = test system: EC layer of BBB in hNVU chip (NSC-EC-PC/flow group); assay: BBB permeability response to TNF-α exposure in hNVU chip; assay type: cell-based, human; conditions: 20 ng/ml TNF-α
# Experimental: In order to evaluate BBB permeability, the hNVU chip was placed horizontally on the substrate, and both EC and medium channels were filled with PBS to match the surface levels and homogenize the pressure applied to a 3D matrix. […] Vascular permeability was evaluated by the flow rate of the solute across the EC barrier according to the reference method. […] Vascular barrier permeability (Pv) was induced by using the mean intensity of blood vessels (Iv) and tissues (NSC gel, IT) at two different time points t1 and t2, according to Equation 6 calculated by Image J software. Here, Δt, V and Asurface are approximated by the mean morphology of the EC layer in the hNVU chip in the 3D confocal image and represent the time between two images in a selected region of interest, the NSC gel volume, and the surface area of the EC layer, respectively.
Compound,fungal invasion into the liver unit through the EC barrier (Cryptococcus neoformans),level of neuroaffinity of C. neoformans (Cryptococcus neoformans),increase of permeability of the EC layer to 70 kDa FITC-dextran [1]
O[C@H]1[C@H](O)[C@@H](O)[C@H](O)[C@@H](O)[C@H]1O [inositol],did not increase fungal invasion,reduced the level of neuroaffinity,–
TNF-α,–,–,about 2.8 times
